The text below walks through data of ChEMBL document CHEMBL1141033, “First-in-class pan caspase inhibitor developed for the treatment of liver disease” (J Med Chem, 2005).

One assay has as its system Jurkat. The assay is described as follows: Inhibitory concentration against JFas cells. The format is functional, cell-based. The note with it: Homo sapiens.
In a further assay the target is T1, Caspase-1 (Mus musculus) (UniProt P29452).
T1 sequence (whole entry): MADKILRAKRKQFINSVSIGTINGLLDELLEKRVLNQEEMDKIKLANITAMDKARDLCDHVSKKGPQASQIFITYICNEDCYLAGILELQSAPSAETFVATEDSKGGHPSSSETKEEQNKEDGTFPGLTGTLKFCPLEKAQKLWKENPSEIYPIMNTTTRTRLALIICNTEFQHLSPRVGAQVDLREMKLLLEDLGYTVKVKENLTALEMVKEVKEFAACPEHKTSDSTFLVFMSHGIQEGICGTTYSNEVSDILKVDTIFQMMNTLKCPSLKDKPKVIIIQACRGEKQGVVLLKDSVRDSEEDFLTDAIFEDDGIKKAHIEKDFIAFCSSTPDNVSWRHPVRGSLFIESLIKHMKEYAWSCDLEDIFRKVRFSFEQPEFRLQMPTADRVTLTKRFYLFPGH
In words: Inhibitory activity against murine Caspase-1.

For another assay, the target named is T2, Caspase-6 (Homo sapiens) (UniProt P55212).
T2 sequence (whole entry): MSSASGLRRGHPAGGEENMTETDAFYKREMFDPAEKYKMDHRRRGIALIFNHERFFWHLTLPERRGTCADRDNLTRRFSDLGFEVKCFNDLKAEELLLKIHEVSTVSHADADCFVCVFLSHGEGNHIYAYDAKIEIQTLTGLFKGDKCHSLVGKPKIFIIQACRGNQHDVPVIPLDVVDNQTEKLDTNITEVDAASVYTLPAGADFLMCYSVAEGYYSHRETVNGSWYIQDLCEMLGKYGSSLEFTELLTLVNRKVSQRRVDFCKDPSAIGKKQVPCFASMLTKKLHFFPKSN
The assay is described as follows: Inhibitory activity against Caspase-6.

In a further assay the target is T3, Caspase-3 (Homo sapiens) (UniProt P42574).
T3 sequence (whole entry): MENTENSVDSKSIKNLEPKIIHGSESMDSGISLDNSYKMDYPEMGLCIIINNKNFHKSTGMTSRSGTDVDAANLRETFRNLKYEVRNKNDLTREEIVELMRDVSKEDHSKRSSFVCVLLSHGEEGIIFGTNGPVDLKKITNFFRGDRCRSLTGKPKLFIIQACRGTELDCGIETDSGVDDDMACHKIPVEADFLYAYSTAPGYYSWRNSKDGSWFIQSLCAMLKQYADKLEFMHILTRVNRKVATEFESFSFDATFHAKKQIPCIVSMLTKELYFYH
The assay is described as follows: Inhibitory activity against Caspase-3.

In another assay the test system is THP-1. In words: Inhibitory concentration against THP-1 cells. The format is functional, cell-based. The note with it: Homo sapiens.
The next assay concerns the target Caspase-8 (Homo sapiens) (UniProt Q14790). In words: Inhibitory activity against Caspase-8.

Caspase-8 (Homo sapiens), sequence (Q14790 217-374 limits assumed): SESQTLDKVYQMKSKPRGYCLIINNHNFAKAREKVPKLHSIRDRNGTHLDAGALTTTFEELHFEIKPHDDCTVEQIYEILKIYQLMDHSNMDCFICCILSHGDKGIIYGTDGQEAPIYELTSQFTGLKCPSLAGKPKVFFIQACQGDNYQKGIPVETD
Caspase-8 (Homo sapiens), sequence (Q14790 385-479 limits assumed): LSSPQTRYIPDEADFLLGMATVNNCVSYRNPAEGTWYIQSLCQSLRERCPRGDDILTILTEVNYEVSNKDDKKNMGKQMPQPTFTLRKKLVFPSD

The IC50 is the point on the concentration scale where inhibition reaches its midpoint. Higher therefore signals a need for much substance. For `C[C@H](NC(=O)C(=O)Nc1ccccc1)C(=O)N[C@@H](CC(=O)O)C(=O)COc1c(F)c(F)cc(F)c1F`, the IC50 in the assay on Jurkat amounted to 670 nM; in the assay with THP-1, 140 nM. The k3/Ki on Caspase-1 (Mus musculus) was 127000 M⁻¹ s⁻¹; at Caspase-6 (Homo sapiens) it was 31700 M⁻¹ s⁻¹; at Caspase-3 (Homo sapiens) it was 25400 M⁻¹ s⁻¹; at Caspase-8 (Homo sapiens) it was 65300 M⁻¹ s⁻¹.
For `C[C@H](NC(=O)C(=O)Nc1cc(C(C)(C)C)ccc1C(C)(C)C)C(=O)N[C@@H](CC(=O)O)C(=O)COC(=O)c1c(Cl)cccc1Cl`, the values for the IC50 in the assay on Jurkat and with THP-1 were 1380 nM and 3130 nM, respectively. Besides, the k3/Ki worked out at 4.02e+06 M⁻¹ s⁻¹ on Caspase-1 (Mus musculus), 6400 M⁻¹ s⁻¹ at Caspase-6 (Homo sapiens), 30000 M⁻¹ s⁻¹ on Caspase-3 (Homo sapiens) and 68 M⁻¹ s⁻¹ on Caspase-8 (Homo sapiens).
As for `C[C@H](NC(=O)C(=O)Nc1ccccc1-c1ccc[nH]1)C(=O)N[C@@H](CC(=O)O)C(=O)COc1c(F)c(F)cc(F)c1F`, the half-maximal inhibitory concentration (IC50) was 56 nM with Jurkat and more than 32000 nM with THP-1. Further, the k3/Ki on Caspase-1 (Mus musculus) was 1.52e+06 M⁻¹ s⁻¹; at Caspase-6 (Homo sapiens), 7750 M⁻¹ s⁻¹; at Caspase-3 (Homo sapiens) it was 12000 M⁻¹ s⁻¹; at Caspase-8 (Homo sapiens), 1.2e+06 M⁻¹ s⁻¹.
Take `C[C@H](NC(=O)C(=O)NCc1ccccc1)C(=O)N[C@@H](CC(=O)O)C(=O)COc1c(F)c(F)cc(F)c1F`: the figures for the IC50 with Jurkat and in the assay with THP-1 were 300 nM and 160 nM, respectively. Further, the k3/Ki worked out at 674000 M⁻¹ s⁻¹ at Caspase-1 (Mus musculus), 37100 M⁻¹ s⁻¹ at Caspase-6 (Homo sapiens), 35500 M⁻¹ s⁻¹ at Caspase-3 (Homo sapiens) and 32500 M⁻¹ s⁻¹ at Caspase-8 (Homo sapiens).
With `C[C@H](NC(=O)C(=O)Nc1ccccc1F)C(=O)N[C@@H](CC(=O)O)C(=O)COc1c(F)c(F)cc(F)c1F`, the IC50 with Jurkat and with THP-1 was 160 nM in each case. In addition, the k3/Ki on Caspase-1 (Mus musculus) is 1.14e+06 M⁻¹ s⁻¹; at Caspase-6 (Homo sapiens), 19800 M⁻¹ s⁻¹; on Caspase-3 (Homo sapiens), 70000 M⁻¹ s⁻¹; on Caspase-8 (Homo sapiens), 114000 M⁻¹ s⁻¹.
Consider `C[C@H](NC(=O)C(=O)Nc1ccccc1Oc1ccccc1)C(=O)N[C@@H](CC(=O)O)C(=O)COc1c(F)c(F)cc(F)c1F`, for which the figures for the IC50 with Jurkat and with THP-1 were 530 nM and 800 nM, respectively. For the same compound, the k3/Ki is 960000 M⁻¹ s⁻¹ on Caspase-1 (Mus musculus), 5900 M⁻¹ s⁻¹ on Caspase-6 (Homo sapiens), 51000 M⁻¹ s⁻¹ at Caspase-3 (Homo sapiens) and 154000 M⁻¹ s⁻¹ at Caspase-8 (Homo sapiens).
For the compound `C[C@H](NC(=O)C(=O)Nc1ccccn1)C(=O)N[C@@H](CC(=O)O)C(=O)COc1c(F)c(F)cc(F)c1F`, the 50% inhibitory concentration (IC50) with Jurkat was 1040 nM; in the assay with THP-1 it was 200 nM. In addition, the k3/Ki at Caspase-1 (Mus musculus) is 468000 M⁻¹ s⁻¹; at Caspase-6 (Homo sapiens), 23700 M⁻¹ s⁻¹; on Caspase-3 (Homo sapiens), 44000 M⁻¹ s⁻¹; at Caspase-8 (Homo sapiens), 201000 M⁻¹ s⁻¹.
On to `C[C@H](NC(=O)C(=O)Nc1cccc2ccccc12)C(=O)N[C@@H](CC(=O)O)C(=O)COc1c(F)c(F)cc(F)c1F`, for which the concentration for half-maximal inhibition (IC50) with Jurkat came to 86 nM; with THP-1, 60 nM. For the same compound, the k3/Ki turned out to be 1.7e+06 M⁻¹ s⁻¹ at Caspase-1 (Mus musculus), 18500 M⁻¹ s⁻¹ at Caspase-6 (Homo sapiens), 57000 M⁻¹ s⁻¹ on Caspase-3 (Homo sapiens) and 460000 M⁻¹ s⁻¹ on Caspase-8 (Homo sapiens).
On to `C[C@H](NC(=O)C(=O)Nc1ccccc1-c1ccccc1)C(=O)N[C@@H](CC(=O)O)C(=O)COC(=O)c1c(Cl)cccc1Cl`, for which the IC50 in the assay on Jurkat came out at 390 nM; in the assay on THP-1 it was 4360 nM. Besides, the k3/Ki was 7.28e+06 M⁻¹ s⁻¹ at Caspase-1 (Mus musculus), 61000 M⁻¹ s⁻¹ on Caspase-6 (Homo sapiens), 29000 M⁻¹ s⁻¹ at Caspase-3 (Homo sapiens) and 342000 M⁻¹ s⁻¹ on Caspase-8 (Homo sapiens).
Regarding `C[C@H](NC(=O)C(=O)NC1CCCCC1)C(=O)N[C@@H](CC(=O)O)C(=O)COc1c(F)c(F)cc(F)c1F`, the IC50 in the assay on Jurkat turned out to be 150 nM; with THP-1 it was 500 nM. For the same compound, the k3/Ki came to 390000 M⁻¹ s⁻¹ on Caspase-1 (Mus musculus), 268 M⁻¹ s⁻¹ at Caspase-6 (Homo sapiens), 21000 M⁻¹ s⁻¹ on Caspase-3 (Homo sapiens) and 2800 M⁻¹ s⁻¹ on Caspase-8 (Homo sapiens).
`C[C@H](NC(=O)C(=O)Nc1ccccc1Cc1ccccc1)C(=O)N[C@@H](CC(=O)O)C(=O)COc1c(F)c(F)cc(F)c1F`: the values for the half-inhibitory concentration (IC50) in the assay on Jurkat and in the assay with THP-1 were 10 nM and 540 nM, respectively. Also, the k3/Ki at Caspase-1 (Mus musculus) is 1.97e+06 M⁻¹ s⁻¹; at Caspase-6 (Homo sapiens) it was 33600 M⁻¹ s⁻¹; at Caspase-3 (Homo sapiens), 44400 M⁻¹ s⁻¹; on Caspase-8 (Homo sapiens), 617000 M⁻¹ s⁻¹.
